pIC50: −log10 of the molar value.
Test system: 242566-281-R-J2-PDC complex spheroid viability
Experiment: Anticancer human tumor 242566-281-R-J2-PDC patient-derived pancreatic carcinoma cell line growth inhibition [RAS]
Conditions: for pIC50: curve of first compound; for viability, T/C: stronger effect = lower value
Excerpt: RAS pathway inhibitors in Combinations in Complex Spheroids
A high-throughput screen of multi-cell type tumor spheroids was designed to identify active combinations of RAS pathway inhibitors and targeted small molecules. Complex spheroids include a stromal component modeled by human endothelial cells (HUVEC) and fibroblasts modeled by human mesenchymal stem cells (MSCs). The concentration ranges selected for each drug and investigational agent were based upon clinically achievable concentrations if the clinical Cmax of the agent was known.
Compounds. The drugs and investigational agents: abemaciclib (NSC768073), cobimetinib (NSC768068), divarasib (GDC6063, NSC841802), docetaxel (NSC628503), GDC-1971 (RLY-1971, NSC841576), gemcitabine (NSC613327), inavolisib (NSC800729), ipatasertib (NSC767898), KB-0742 (NSC834161), MRTX-1133 (NSC836407), osimertinib (NSC779217), RMC-4630 (NSC839698), RMC-6236 (NSC851965), RMC-6291 (NSC852671), Ro-3306 (NSC812927), sapanisertib (NSC764658), SN-38 (NSC673596), staurosporine (NSC755774), SY5609 (NSC837396), and tovorafenib (DAY101, NSC766906), were obtained from the National Cancer Institute (NCI) Developmental Therapeutics Program Chemical Repository. The FDA-approved anticancer drug set is available from the NCI Developmental Therapeutics Program. […] The stock solutions were prepared in dimethyl sulfoxide (DMSO, Sigma-Aldrich, St. Louis, MO, cat. D2650) at 800-fold the tested concentration and stored at -70 degrees C prior to their use. All drugs and investigational agents were tested over a range starting from a high concentration at or near the clinical Cmax and decreasing in half-log increments. If the clinical Cmax for an agent had not been determined, the highest concentration tested was 10 microM.
Cell Culture. All cells were maintained in an incubator at 37 degrees C and 5% CO2 with 95% humidity. The PDC lines were cultured according to standard operating procedures established by the NCI PDMR. All PDCs were thawed and cultured in Matrigel-coated flasks prepared with a working solution of 1X Ham's F-12 nutrient mix, without supplementation (Invitrogen, Waltham, MA, cat. 11765054), 100 U/mL penicillin-streptomycin (Invitrogen, cat. 15140122), and 2.5% Matrigel (Corning Inc., Corning, NY, cat. 354248) for the first three passages. The 362531-283-R-J2-PDC and 782815-120-R-J1-PDC lines were cultured in 6C/Colon 1B media, which includes advanced DMEM/F-12 (Thermo Fisher Scientific, cat. 12634028), 10 mM HEPES (Thermo Fisher Scientific, cat. 15630080), 1X GlutaMAX supplement (Thermo Fisher Scientific, cat. 35050061), 0.1 mg/mL primocin (InvivoGen, San Diego, CA, cat. ant-pm-2), 10% defined fetal bovine serum, heat inactivated (HyClone Laboratories Inc., Logan, UT, cat. SH30070.03HI), 50% L-WRN conditioned media (ATCC, cat. CRL-3276), 1.25 mM N-Acetyl-L-cysteine (Sigma-Aldrich, cat. A9165), 10 mM nicotinamide (Sigma-Aldrich, cat. N0636), 1X B-27 supplement (Thermo Fisher Scientific, cat. 17504044), 1X N-2 supplement (Thermo Fisher Scientific, cat. 17502048), 50 ng/mL human EGF (Thermo Fisher Scientific, cat. PHG0311), and 10 microM Y-27632 dihydrochloride (Tocris Bioscience, cat. 1254). The K12877-001-R-J1-PDC line was cultured in 6I media, which includes all 6C/Colon 1B media plus 10 ng/mL human FGF-10 (PeproTech, cat. 100-26), 1 ng/mL human FGF-2 (PeproTech, cat. 100-18B), 1 µM prostaglandin E2 (Tocris Bioscience, cat. 2296), […] hydrocortisone (Sigma-Aldrich, cat. H4001), and […] bovine insulin (Sigma-Aldrich, cat. I6634). The K86415-001-R-J1-PDC line was cultured in 6D media, which includes all 6C/Colon 1B media components minus the L-WRN conditioned media. The 485176-168-R4-J1-PDC was cultured in PANC media, which includes all 6C/Colon 1B media plus 100 ng/mL human FGF-10 (PeproTech, cat. 100-26), 500 nM SB-431542 (Selleckchem, cat. S1067), and 10 nM gastrin (Tocris Bioscience, cat. 3006). […]

[1] = second compound 0.0316 µM, first compound 0.0316 µM
[2] = second compound 0.0316 µM, first compound 0.1 µM
[3] = second compound 0.0316 µM, first compound 0.316 µM
[4] = second compound 0.0316 µM, first compound 1 µM
[5] = second compound 0.1 µM, first compound 0.0316 µM
[6] = second compound 0.1 µM, first compound 0.1 µM
[7] = second compound 0.1 µM, first compound 0.316 µM
[8] = second compound 0.1 µM, first compound 1 µM
[9] = second compound 0.316 µM, first compound 0.0316 µM
[10] = second compound 0.316 µM, first compound 0.1 µM
[11] = second compound 0.316 µM, first compound 0.316 µM
[12] = second compound 0.316 µM, first compound 1 µM
[13] = second compound 1 µM, first compound 0.0316 µM
[14] = second compound 1 µM, first compound 0.1 µM
[15] = second compound 1 µM, first compound 0.316 µM
[16] = second compound 1 µM, first compound 1 µM
[17] = second compound 3.16 µM, first compound 0.0316 µM
[18] = second compound 3.16 µM, first compound 0.1 µM
[19] = second compound 3.16 µM, first compound 0.316 µM
[20] = second compound 3.16 µM, first compound 1 µM
[21] = second compound 10 µM, first compound 0.0316 µM
[22] = second compound 10 µM, first compound 0.1 µM
[23] = second compound 10 µM, first compound 0.316 µM
[24] = second compound 10 µM, first compound 1 µM
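Also: spheroids exposed to compound for 7 days before readout.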
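For viability, T/C in this document: 100% = DMSO vehicle control wells.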

In the case of `NC1c2ccccc2OC12CCN(c1cnc3c(N4CCCc5ncccc54)n[nH]c3n1)CC2` (centres undefined) + C#Cc1c(F)ccc2cc(O)cc(-c3ncc4c(N5CC6CCC(C5)N6)nc(OCC56CCCN5CC(F)C6)nc4c3F)c12, the pIC50 (second compound 0.0316 µM) was 6.79, the pIC50 (second compound 0.1 µM) was 7.28 and the pIC50 (second compound 0.316 µM) was greater than 7.50. It also gave a pIC50 (second compound 1 µM) greater than 7.50, a pIC50 (second compound 3.16 µM) greater than 7.50 and a pIC50 (second compound 10 µM) greater than 7.50. It also gave a viability, T/C [1] of 72.3%, a viability, T/C [2] of 56.2% and a viability, T/C [3] of 41.6%. The viability, T/C [4] was 33.1%, the viability, T/C (second compound 0.0316 µM, first compound 3.16 µM) was 29.7% and the viability, T/C (second compound 0.0316 µM, first compound 10 µM) was 22.9%. It also gave a viability, T/C [5] of 52.3%, a viability, T/C [6] of 49% and a viability, T/C [7] of 36.8%. For the same compound, the viability, T/C [8] was 28.4%, the viability, T/C (second compound 0.1 µM, first compound 3.16 µM) was 34.1% and the viability, T/C (second compound 0.1 µM, first compound 10 µM) was 20.3%. The viability, T/C [9] was 40.6%, the viability, T/C [10] was 43% and the viability, T/C [11] was 36.1%. The viability, T/C [12] was 35.7%, the viability, T/C (second compound 0.316 µM, first compound 3.16 µM) was 31.8% and the viability, T/C (second compound 0.316 µM, first compound 10 µM) was 17.3%. For the same compound, the viability, T/C [13] was 32.2%, the viability, T/C [14] was 37.8% and the viability, T/C [15] was 36.3%. The viability, T/C [16] was 29%, the viability, T/C (second compound 1 µM, first compound 3.16 µM) was 34% and the viability, T/C (second compound 1 µM, first compound 10 µM) was 18.7%. It also gave a viability, T/C [17] of 35.2%, a viability, T/C [18] of 38.1% and a viability, T/C [19] of 39.5%. The viability, T/C [20] was 33.7%, the viability, T/C (second compound 3.16 µM, first compound 3.16 µM) was 34.9% and the viability, T/C (second compound 3.16 µM, first compound 10 µM) was 16.2%. The viability, T/C [21] was 38.1%, the viability, T/C [22] was 36.9% and the viability, T/C [23] was 39.6%. For the same compound, the viability, T/C [24] was 33%, the viability, T/C (second compound 10 µM, first compound 3.16 µM) was 35.5% and the viability, T/C (second compound 10 µM, first compound 10 µM) was 10.4%.

`C=CC(=O)Nc1cc(Nc2nccc(-c3cn(C)c4ccccc34)n2)c(OC)cc1N(C)CCN(C)C` + C#Cc1c(F)ccc2cc(O)cc(-c3ncc4c(N5CC6CCC(C5)N6)nc(OCC56CCCN5CC(F)C6)nc4c3F)c12 was tested, and the pIC50 (second compound 0.0316 µM) was 6.94, the pIC50 (second compound 0.1 µM) was 7.15 and the pIC50 (second compound 0.316 µM) was 7.06. For the same compound, the pIC50 (second compound 1 µM) was 7.60, the pIC50 (second compound 3.16 µM) was 7.65 and the pIC50 (second compound 10 µM) was 7.79. The viability, T/C (second compound 0.0316 µM, first compound 0.00316 µM) was 81.2%, the viability, T/C (second compound 0.0316 µM, first compound 0.01 µM) was 115% and the viability, T/C [1] was 80.8%. For the same compound, the viability, T/C [2] was 52.9%, the viability, T/C [3] was 43.1% and the viability, T/C [4] was 37.9%. The viability, T/C (second compound 0.1 µM, first compound 0.00316 µM) was 80.3%, the viability, T/C (second compound 0.1 µM, first compound 0.01 µM) was 85.2% and the viability, T/C [5] was 60.7%. It also gave a viability, T/C [6] of 46.9%, a viability, T/C [7] of 41.3% and a viability, T/C [8] of 35.2%. The viability, T/C (second compound 0.316 µM, first compound 0.00316 µM) was 77.6%, the viability, T/C (second compound 0.316 µM, first compound 0.01 µM) was 75.2% and the viability, T/C [9] was 66%. It also gave a viability, T/C [10] of 47.1%, a viability, T/C [11] of 40.7% and a viability, T/C [12] of 35.3%. The viability, T/C (second compound 1 µM, first compound 0.00316 µM) was 68.3%, the viability, T/C (second compound 1 µM, first compound 0.01 µM) was 60.2% and the viability, T/C [13] was 46.7%. For the same compound, the viability, T/C [14] was 42.1%, the viability, T/C [15] was 36.4% and the viability, T/C [16] was 38.5%. It also gave a viability, T/C (second compound 3.16 µM, first compound 0.00316 µM) of 60.2%, a viability, T/C (second compound 3.16 µM, first compound 0.01 µM) of 58.6% and a viability, T/C [17] of 48%. For the same compound, the viability, T/C [18] was 41%, the viability, T/C [19] was 36.1% and the viability, T/C [20] was 37.7%. For the same compound, the viability, T/C (second compound 10 µM, first compound 0.00316 µM) was 57.1%, the viability, T/C (second compound 10 µM, first compound 0.01 µM) was 57.1% and the viability, T/C [21] was 44.6%. It also gave a viability, T/C [22] of 40.1%, a viability, T/C [23] of 39.8% and a viability, T/C [24] of 36.7%.

From PubChem BioAssay AID2060910 (Molecular Pharmacology Branch, DTP, NCI, 2025)
